Converted amounts (≈) assume the structure as drawn. “And” between values parts separate entries of the source, which are not always exact repeats. Equal values may be shown once. Read-outs that look alike come from different tables or passages of the source.
Assays:
[1] = test system: Aedes aegypti mosquitoes; assay: Topical bioassay on adult female Aedes aegypti mosquitoes (knockdown 1 h, mortality 24 h; Colby calculation for combinations); format: in vivo; details: for mortality at 0.0005 µg/mosquito: read-out: % MORTALITY AFTER 24 HRS, 0.0005 μg/mosquito
From the text: Components of a composition can have a synergistic or additive effect on insecticidal activity. Components have an additive effect when the effect of the combination is equal to the sum of the effects of each individual component. In contrast, components have a synergistic effect when the effect of the combination exceeds the sum of the effects of the components when applied individually. The effect (E) of a combination of two compounds may be calculated using the Colby formula (1) (S. R. Colby, “Calculating Synergistic and Antagonistic Responses of Herbicide Combinations”, Weeds 1967, 15, 20-22):
If the actual insecticidal kill rate is the calculated value (E), then the action of the combination is additive. If the actual insecticidal kill rate exceeds the calculated value (E), then the action of the combination is super-additive, that is, a synergistic effect is present. If the insecticidal kill rate is lower than the calculated value (E), then the action of the combination is considered antagonistic.
Adult female Aedes aegypti mosquitoes were segregated in 18″×18″ screen cages based on date of eclosion, therefore the exact age of the mosquitoes were known for bioassays.
Ten female mosquitoes, aged four to six days after eclosion, were aspirated out of their respective cage and into a small glass jar. The mosquitoes were then anesthetized with CO2 gas for 30 seconds. After the adults were anesthetized, they were quickly placed on a plastic platform for treatment application. Treatments were serially diluted (using a BrandTech Scientific Transferpette S pipette (100-1000 μL), labeled centrifuge tubes, and a vortex mixer) from stocks of insecticides using reagent grade acetone as the diluent to concentrations as indicated for each treatment solution. A treatment solution may contain additional ingredients as indicated for each study.
Using a Hamilton PB00-1 Repeating Dispenser with a Hamilton 25 Microliter Syringe, 0.5 μL of each treatment solution was applied to the thorax of each mosquito. Immediately following the application of the treatment, the mosquitoes were gently transferred into a clean paper cup and covered with screen. The mesh screen prevented the mosquitoes from escaping and allowed the specimens to be viewed for ratings. A cotton ball soaked with 10% sucrose solution was inserted into a side hole of each cup for hydration and nourishment. Each treatment variable in the study was replicated three times using separate cups for each replication.
The untreated controls treatments were anesthetized for 30 seconds and gently transferred to the paper cups. The acetone treated control was treated exactly as described above except that the solution applied to each mosquito was undiluted acetone.
The condition of the mosquitoes in each cup was recorded at one hour and 24 hours after initial treatment. The condition classifications used were (1) alive and flying, (2) alive and unable to fly, or (3) dead. The percent mortality for each treatment was calculated by summing the mortalities of each replicate then calculating the percent dead from the total number of mosquitoes.
Where indicated, the mortality data were subjected to probit analysis using the Statistical Analysis System Version 9.1 program PROC PROBIT (SAS Institute (2003) PROC user's manual, version 9.1. SAS Institute, Cary, N.C.).

[2] = cited from earlier work
[3] = Aedes aegypti, topical, 24 h, read-out: % MORTALITY AFTER 24 HRS, 0.005 μg
[4] = Aedes aegypti, topical, 24 h, read-out: % MORTALITY AFTER 24 HRS, single active, 0.01 μg
[5] = Aedes aegypti, topical, 24 h, read-out: % MORTALITY AFTER 24 HRS, active ingredient alone, 3%, adult, virgin, female Aedes aegypti
[6] = Aedes aegypti, topical, 24 h, read-out: % MORTALITY AFTER 24 HRS, insecticide alone, 0.0003 μg, adult, virgin, female Aedes aegypti
[7] = active ingredient alone, 3%, adult, virgin, female Aedes aegypti
[8] = Aedes aegypti, topical, 24 h, read-out: % MORTALITY AFTER 24 HRS, single active, 3%

O=[N+]([O-])NC1=NCCN1Cc1ccc(Cl)nc1 [Imidacloprid, imidacloprid, reference compound]
mortality at 5 ng [1, 3]: 60%
mortality at 2.5 ng ([1]; Aedes aegypti, topical, 24 h, read-out: % MORTALITY AFTER 24 HRS, single active, 0.0025 μg): 83%
mortality at 3 ng ([1]; Aedes aegypti, topical, 24 h, read-out: % MORTALITY AFTER 24 HRS, single active, 0.003 μg): 23%
mortality at 5 ng ([1]; Aedes aegypti, topical, 24 h, read-out: % MORTALITY AFTER 24 HRS, single active, 0.005 μg): 30%

C=C(C)[C@@H]1CC=C(C=O)CC1 [(S)-(−)-Perillaldehyde]
1 hour knockdown ([1]; 1%): 3%
% MORTALITY AFTER 24 HRS ([1]; 1%): 7%
% MORTALITY AFTER 24 HRS ([1]; 2%): 30%
1 hour knockdown ([1]; 5%): 93%
% MORTALITY AFTER 24 HRS ([1]; 5%): 93%
1 hour knockdown ([1]; 10%): 100%
% MORTALITY AFTER 24 HRS ([1]; 10%): 100%
1 hour knockdown ([1]; 20%): 97%
% MORTALITY AFTER 24 HRS ([1]; 20%): 100%

C=C1CC[C@@H]2[C@H]([C@H]3[C@H]1CC[C@]3(C)O)C2(C)C [Spathulenol]
Vapor Pressure (@ 25° C.) [2]: 1.2 × 10^−4 mmHg
Solubility (in water @ 25° C.) ([2]; in water): 12.4 mg/L (≈ 56.3 µM)

C=C(C)[C@H]1CC=C(C)CC1 [D-limonene]
Vapor Pressure (@ 25° C.) [2]: 1.541 mmHg

CN/C(=N\[N+](=O)[O-])NCc1cnc(Cl)s1 [Clothianidin, clothianidin, reference compound]
mortality at 5 ng [1, 3]: 7%
mortality at 10 ng ([1]; Aedes aegypti, topical, 24 h, read-out: % MORTALITY AFTER 24 HRS, 0.01 μg): 50%
mortality at 25 ng ([1]; Aedes aegypti, topical, 24 h, read-out: % MORTALITY AFTER 24 HRS, 0.025 μg): 40%
mortality at 10 ng [1, 4]: 47%
mortality at 15 ng ([1]; Aedes aegypti, topical, 24 h, read-out: % MORTALITY AFTER 24 HRS, single active, 0.015 μg): 0%
mortality at 20 ng ([1]; Aedes aegypti, topical, 24 h, read-out: % MORTALITY AFTER 24 HRS, single active, 0.02 μg): 43%

CC1=CCC2CC1C2(C)C (stereo not drawn) [Pinene Alpha]
Vapor Pressure (@ 25° C.) [2]: 4.75 mmHg

CC1CC=CCC1 (stereo not drawn) [4-Methylcyclohexene]
mortality at 3 % [1, 5]: 0%

C#CCC1=C(C)C(OC(=O)C2C(C=C(C)C)C2(C)C)CC1=O (stereo not drawn) [Prallethrin, prallethrin, reference compound]
mortality at 750 pg ([1]; Aedes aegypti, topical, 24 h, read-out: % MORTALITY AFTER 24 HRS, 0.00075 μg): 37%
mortality at 300 pg [1, 6]: 7%
mortality at 400 pg ([1]; Aedes aegypti, topical, 24 h, read-out: % MORTALITY AFTER 24 HRS, insecticide alone, 0.0004 μg, adult, virgin, female Aedes aegypti): 40%
mortality at 750 pg ([1]; Aedes aegypti, topical, 24 h, read-out: % MORTALITY AFTER 24 HRS, single active, 0.00075 μg): 20%

CC1=CC(=O)CC(C)C1 (stereo not drawn) [3,5-Dimethyl . . .]
% MORTALITY AFTER 24 HRS [1, 7]: 63%

CC1(C)C(C=C(Cl)Cl)C1C(=O)OCc1cccc(Oc2ccccc2)c1 (stereo not drawn) [Permethrin, permethrin, reference compound]
1 hour knockdown ([1]; 0.0004 μg/mosquito): 93%
mortality at 300 pg ([1]; Aedes aegypti, topical, 24 h, read-out: % MORTALITY AFTER 24 HRS, 0.0003 μg): 27%
mortality at 0.0004 µg/mosquito ([1]; Aedes aegypti, topical, 24 h, read-out: % MORTALITY AFTER 24 HRS, 0.0004 μg/mosquito): 70%
mortality at 300 pg ([1]; Aedes aegypti, topical, 24 h, read-out: % MORTALITY AFTER 24 HRS, single active, 0.0003 μg): 37%
mortality at 400 pg ([1]; Aedes aegypti, topical, 24 h, read-out: % MORTALITY AFTER 24 HRS, single active, 0.0004 μg): 47%

CC1=CCC(=C(C)C)CC1 [Terpinolene, terpinolene]
mortality at 3 % [1, 5]: 20%

C=C(C)[C@@H]1CC=C(CO)CC1 [(S)-(−)-Perillyl alcohol]
% MORTALITY AFTER 24 HRS ([1]; 1%): 0%
% MORTALITY AFTER 24 HRS ([1]; 2%, listed as (S)-(−)-perillyl alcohol): 70%
% MORTALITY AFTER 24 HRS ([1]; 2%, listed as (S)-Perillyl alcohol): 33%
% MORTALITY AFTER 24 HRS ([1]; single active, 2%): 80% and 67%

CC(C)=CC1C(C(=O)OCc2cccc(Oc3ccccc3)c2)C1(C)C (stereo not drawn) [Sumithrin, sumithrin (d-phenothrin), reference compound]
mortality at 700 pg ([1]; Aedes aegypti, topical, 24 h, read-out: % MORTALITY AFTER 24 HRS, 0.0007 μg): 27%
mortality at 300 pg [1, 6]: 27%
mortality at 700 pg ([1]; Aedes aegypti, topical, 24 h, read-out: % MORTALITY AFTER 24 HRS, insecticide alone, 0.0007 μg, adult, virgin, female Aedes aegypti): 43%
mortality at 700 pg ([1]; Aedes aegypti, topical, 24 h, read-out: % MORTALITY AFTER 24 HRS, single active, 0.0007 μg): 27%

CC1=CC(=O)CC(C)C1 (stereo not drawn) [3.5-Dimethyl . . .]
% MORTALITY AFTER 24 HRS [1, 7]: 30%

CCOc1ccc(C(C)(C)COCc2cccc(Oc3ccccc3)c2)cc1 [Etofenprox, etofenprox, reference compound]
1 hour knockdown ([1]; 0.001 μg/mosquito): 73%
1 hour knockdown ([1]; 0.002 μg/mosquito): 83%
mortality at 0.0005 µg/mosquito ([1]; Aedes aegypti, topical, 24 h): 97%
mortality at 0.001 µg/mosquito ([1]; Aedes aegypti, topical, 24 h, read-out: % MORTALITY AFTER 24 HRS, 0.001 μg/mosquito): 40%
mortality at 0.002 µg/mosquito ([1]; Aedes aegypti, topical, 24 h, read-out: % MORTALITY AFTER 24 HRS, 0.002 μg/mosquito): 53%
mortality at 1 ng ([1]; Aedes aegypti, topical, 24 h, read-out: % MORTALITY AFTER 24 HRS, single active, 0.001 μg): 40%
mortality at 2 ng ([1]; Aedes aegypti, topical, 24 h, read-out: % MORTALITY AFTER 24 HRS, single active, 0.002 μg): 37%

CN1COCN(Cc2cnc(Cl)s2)/C1=N\[N+](=O)[O-] [Thiamethoxam, thiamethoxam, reference compound]
mortality at 2.5 ng ([1]; Aedes aegypti, topical, 24 h, read-out: % MORTALITY AFTER 24 HRS, 0.0025 μg): 3%
mortality at 7.5 ng ([1]; Aedes aegypti, topical, 24 h, read-out: % MORTALITY AFTER 24 HRS, single active, 0.0075 μg): 23%
mortality at 10 ng [1, 4]: 7%

CC[S+]([O-])c1c(C#N)nn(-c2c(Cl)cc(C(F)(F)F)cc2Cl)c1N (stereo not drawn) [ethiprole, reference compound]
1 hour knockdown ([1]; 0.0005 μg/mosquito): 0%
mortality at 0.0005 µg/mosquito ([1]; Aedes aegypti, topical, 24 h): 97%

CC1=CCCCC1 [1-Methyl-1-cyclohexene, 1-methyl-1-cyclohexene]
mortality at 3 % [1, 5]: 40%

C=C(C)[C@@H]1CC=C(C)C(=O)C1 [(R)-(−)-Carvone]
% MORTALITY AFTER 24 HRS ([1]; 3%): 7%
% MORTALITY AFTER 24 HRS ([1]; single active, 3%): 13% and 10%

OCC1CC=CCC1 (stereo not drawn) [3-Cyclohexene-1-methanol, 3-cyclohexene-1-methanol]
mortality at 3 % [1, 8]: 57%

C=C(C)[C@H]1CC=C(C)C(=O)C1 [(S)-(−)-Carvone]
% MORTALITY AFTER 24 HRS ([1]; 3%): 20%

C=C(C)[C@H]1CC=C(C)C(=O)C1 [(S)-(+)-Carvone]
% MORTALITY AFTER 24 HRS ([1]; 3%): 13%
% MORTALITY AFTER 24 HRS ([1]; single active, 3%): 7% and 17%

C=CC(C)=CCC=C(C)CCC=C(C)C [Farnesene]
1 hour knockdown ([1]; 1%): 0%
% MORTALITY AFTER 24 HRS ([1]; 1%): 3%
1 hour knockdown ([1]; 3%): 3% and 0% and 7%
% MORTALITY AFTER 24 HRS ([1]; 3%): 3%
1 hour knockdown ([1]; 5%): 0%
% MORTALITY AFTER 24 HRS ([1]; 5%): 13%
1 hour knockdown ([1]; 10%): 87%
% MORTALITY AFTER 24 HRS ([1]; 10%): 70%
1 hour knockdown ([1]; 20%): 100%
% MORTALITY AFTER 24 HRS ([1]; 20%): 100%
% MORTALITY AFTER 24 HRS ([1]; single active, 3%): 7%

CC(C)(C)C1=CCCCC1 [1-tert-Butyl . . .]
% MORTALITY AFTER 24 HRS [1, 7]: 30%

CC1(C)C2CC=C(C=O)C1C2 [(1R)-(−)-Myrtenal]
% MORTALITY AFTER 24 HRS ([1]; 2%): 10%

C=C(C)[C@H]1CC=C(C)CC1 [Limonene]
% MORTALITY AFTER 24 HRS ([1]; 5%): 27%

CC/C=C\C/C=C\C/C=C\CCCCCCCC(=O)O [Linolenic acid]
1 hour knockdown ([1]; 1%): 0%
1 hour knockdown ([1]; 5%): 27%
1 hour knockdown ([1]; 10%): 40%
1 hour knockdown ([1]; 20%): 93%
mortality at 1 % ([1]; Aedes aegypti, topical, 24 h, read-out: % MORTALITY AFTER 24 HRS, 1%): 3%
mortality at 5 % ([1]; Aedes aegypti, topical, 24 h, read-out: % MORTALITY AFTER 24 HRS, 5%): 33%
mortality at 10 % ([1]; Aedes aegypti, topical, 24 h, read-out: % MORTALITY AFTER 24 HRS, 10%): 83%
mortality at 20 % ([1]; Aedes aegypti, topical, 24 h, read-out: % MORTALITY AFTER 24 HRS, 20%): 93%
mortality at 3 % [1, 8]: 10%

CC1=CC(=O)CC(C)(C)C1 [Isophorone, isophorone]
mortality at 3 % [1, 5]: 57%
